Source: US9357778B2, “N-acyl-2-(cyclo)alkypyrrolidines and piperidines useful as fungicides” (BAYER CROPSCIENCE AG, priority 2012, dated 2016)

What was measured:
Pyrenophora teres = experiment: In vivo preventive test on Pyrenophora teres (barley); conditions: 500 ppm of active ingredient, evaluated 7-9 days after inoculation
Protocol: In Vivo Preventive Test on Pyrenophora teres (Barley) • Solvent: 49 parts by weight of N,N-dimethylformamide • Emulsifier: 1 part by weight of alkylaryl polyglycol ether To produce a suitable preparation of active compound, 1 part by weight of active compound is mixed with the stated amounts of solvent and emulsifier, and the concentrate is diluted with water to the desired concentration. To test for preventive activity, young plants are sprayed with the preparation of active compound at the stated rate of application. One day after this treatment, the plants are inoculated with an aqueous spore suspension of Pyrenophora teres. The plants remain for 48 hours in an incubation cabinet at 22° C. and a relative atmospheric humidity of 100%. Then the plants are placed in a greenhouse at a temperature of approximately 20° C. and a relative atmospheric humidity of approximately 80%. The test is evaluated 7-9 days after the inoculation. 0% means an efficacy which corresponds to that of the untreated control while an efficacy of 100% means that no disease is observed.

[1] = log P by HPLC on reversed-phase column (C 18), EEC Directive 79/831 Annex V.A8; format: physicochemical; conditions: 40° C., 0.1% aqueous formic acid and acetonitrile
Protocol: In table 1, the log P values were determined in accordance with EEC Directive 79/831 Annex V.A8 by HPLC (High Performance Liquid Chromatography) on a reversed-phase column (C 18), using the method described below: Temperature: 40° C.; Mobile phases: 0.1% aqueous formic acid and acetonitrile; linear gradient from 10% acetonitrile to 90% acetonitrile. Calibration was carried out using unbranched alkan-2-ones (comprising 3 to 16 carbon atoms) with known log P values (determination of the log P values by the retention times using linear interpolation between two successive alkanones). lambda-max-values were determined using UV-spectra from 200 nm to 400 nm and the peak values of the chromatographic signals.

Alternaria solani = experiment: In vivo preventive test on Alternaria solani (tomato); conditions: evaluated 7 days after inoculation
Protocol: In Vivo Preventive Test on Alternaria solani (Tomato) • Solvent: 49 parts by weight of N,N-dimethylformamide • Emulsifier: 1 part by weight of alkylarylpolyglycolether To produce a suitable preparation of active compound, 1 part by weight of active compound is mixed with the stated amounts of solvent and emulsifier, and the concentrate is diluted with water to the desired concentration. To test for preventive activity, young plants are sprayed with the preparation of active compound at the stated rate of application. One day after this treatment, the plants are inoculated with an aqueous spore suspension of Alternaria solani. The plants remain for one day in an incubation cabinet at approximately 22° C. and a relative atmospheric humidity of 100%. Then the plants are placed in an incubation cabinet at approximately 20° C. and a relative atmospheric humidity of 96%. The test is evaluated 7 days after the inoculation. 0% means an efficacy which corresponds to that of the untreated control while an efficacy of 100% means that no disease is observed.

Sphaerotheca fuliginea = experiment: In vivo preventive test on Sphaerotheca fuliginea (cucumber); conditions: 500 ppm of active ingredient, evaluated 7 days after inoculation
Protocol: In Vivo Preventive Test on Sphaerotheca Fulicinea (Cucumber) • Solvent: 49 parts by weight of N,N-dimethylformamide • Emulsifier: 1 part by weight of alkylarylpolyglycolether To produce a suitable preparation of active compound, 1 part by weight of active compound is mixed with the stated amounts of solvent and emulsifier, and the concentrate is diluted with water to the desired concentration. To test for preventive activity, young plants are sprayed with the preparation of active compound at the stated rate of application. One day after this treatment, the plants are inoculated with an aqueous spore suspension of Sphaerotheca fuliginea. Then the plants are placed in a greenhouse at approximately 23° C. and a relative atmospheric humidity of approximately 70%. The test is evaluated 7 days after the inoculation. 0% means an efficacy which corresponds to that of the untreated control, while an efficacy of 100% means that no disease is observed.

Leptosphaeria nodorum = experiment: In vivo preventive test on Leptosphaeria nodorum (wheat); conditions: 500 ppm of active ingredient, evaluated 8 days after inoculation
Protocol: In Vivo Preventive Test on Leptosphaeria nodorum (Wheat) • Solvent: 49 parts by weight of N,N-dimethylacetamide • Emulsifier: 1 part by weight of alkylaryl polyglycol ether To produce a suitable preparation of active compound, 1 part by weight of active compound or active compound combination is mixed with the stated amounts of solvent and emulsifier, and the concentrate is diluted with water to the desired concentration. To test for preventive activity, young plants are sprayed with the preparation of active compound or active compound combination at the stated rate of application. After the spray coating has been dried, the plants are sprayed with a spore suspension of Leptosphaeria nodorum. The plants remain for 48 hours in an incubation cabinet at approximately 20° C. and a relative atmospheric humidity of approximately 100%. The plants are placed in the greenhouse at a temperature of approximately 22° C. and a relative atmospheric humidity of approximately 80%. The test is evaluated 8 days after the inoculation. 0% means an efficacy which corresponds to that of the untreated control, while an efficacy of 100% means that no disease is observed.

Row | Compound | logP [1] | Efficacy (Pyrenophora teres) [%] | Efficacy (Alternaria solani; 500 ppm of active ingredient) [%] | Efficacy (Sphaerotheca fuliginea) [%] | Efficacy (Alternaria solani; 100 ppm of active ingredient) [%] | Efficacy (Leptosphaeria nodorum) [%]
1 | Cn1cc(C(=O)N2CCCC2CC2CCCCC2)c(C(F)F)n1 (stereo not drawn) [Example 15] | 3.33 | 100 | 89 | 85 | – | –
2 | Cn1nc(C(F)F)c(C(=O)N2CCCC2C23CC4CC(CC(C4)C2)C3)c1Cl (stereo not drawn) [Example 13] | 4.67 | 100 | 94 | – | – | –
3 | CCCCCCC1CCCCN1C(=O)c1c(C(F)F)nn(C)c1F (stereo not drawn) [Example 22] | 4.18 | 100 | 100 | – | – | –
4 | Cn1nc(C(F)F)c(C(=O)N2CCCCC2C(F)(F)F)c1F (stereo not drawn) [Example 19] | 2.63 | 94 | – | – | – | –
5 | Cn1nc(C(F)F)c(C(=O)N2CCCCC2C2CCCCC2)c1Cl (stereo not drawn) [Example 23] | 3.85 | 100 | 88 | – | – | –
6 | Cn1nc(C(F)F)c(C(=O)N2CCCCC2C(F)(F)F)c1Cl (stereo not drawn) [Example 18] | 2.80 | 89 | – | – | – | –
7 | CCCCCCC1CCCN1C(=O)c1cn(C)nc1C(F)F (stereo not drawn) [Example 6] | 3.37 | 95 | 94 | – | – | –
8 | Cn1nc(C(F)F)c(C(=O)N2CCCC2C(F)(F)F)c1F (stereo not drawn) [Example 2] | 2.25 | 100 | – | – | – | –
9 | Cn1nc(C(F)F)c(C(=O)N2CCCC2C(F)(F)F)c1Cl (stereo not drawn) [Example 1] | 2.39 | 100 | – | – | – | –
10 | Cn1cc(C(=O)N2CCCC2C23CC4CC(CC(C4)C2)C3)c(C(F)F)n1 (stereo not drawn) [Example 12] | 3.89 | 100 | 94 | – | 89 | –
11 | CCCCCCC1CCCCN1C(=O)c1c(C(F)F)nn(C)c1Cl (stereo not drawn) [Example 21] | 4.39 | 100 | 100 | – | – | –
12 | Cn1cc(C(=O)N2CCCC2C2CCCCC2)c(C(F)F)n1 (stereo not drawn) [Example 9] | 2.88 | 100 | 89 | 95 | – | –
13 | Cn1nc(C(F)F)c(C(=O)N2CCCC2C2CCCCC2)c1Cl (stereo not drawn) [Example 10] | 3.48 | 100 | 94 | 90 | – | –
14 | Cn1nc(C(F)F)c(C(=O)N2CCCC2C23CC4CC(CC(C4)C2)C3)c1F (stereo not drawn) [Example 14] | 4.44 | 100 | 94 | 70 | – | –
15 | Cn1nc(C(F)F)c(C(=O)N2CCCCC2C2CCCCC2)c1F (stereo not drawn) [Example 24] | 3.60 | 100 | 94 | 95 | – | –
16 | Cn1nc(C(F)F)c(C(=O)N2CCCC2CC2CCCCC2)c1Cl (stereo not drawn) [Example 16] | 3.89 | 100 | 94 | – | – | 70
17 | CCCCCCC1CCCCN1C(=O)c1cn(C)nc1C(F)F (stereo not drawn) [Example 20] | 3.71 | 100 | 100 | – | 94 | –
18 | CCCCCCC1CCCN1C(=O)c1c(C(F)F)nn(C)c1Cl (stereo not drawn) [Example 7] | 3.94 | 100 | 94 | – | – | –

Second part, led by results:

Row | logP [1] | Compound | Efficacy (Pyrenophora teres) [%] | Efficacy (Alternaria solani; 500 ppm of active ingredient) [%] | Efficacy (Sphaerotheca fuliginea) [%] | Efficacy (Alternaria solani; 100 ppm of active ingredient) [%] | Efficacy (Leptosphaeria nodorum) [%]
19 | 4.87 | Cn1nc(C(F)F)c(C(=O)N2CCCCC2CCOCCC2CCCCC2)c1Cl (stereo not drawn) [Example 43] | 90 | – | – | – | –
20 | 3.35 | CCCCOCCC1CCCCN1C(=O)c1c(C(F)F)nn(C)c1Cl (stereo not drawn) [Example 31] | 90 | 89 | – | – | –
21 | 2.39 | CCCOCCC1CCCCN1C(=O)c1cn(C)nc1C(F)F (stereo not drawn) [Example 27] | – | – | – | – | –
22 | 2.73 | CCCOCCC1CCCCN1C(=O)c1c(C(F)F)nn(C)c1F (stereo not drawn) [Example 29] | 100 | 94 | – | – | –
23 | 2.90 | CCCOCCC1CCCCN1C(=O)c1c(C(F)F)nn(C)c1Cl (stereo not drawn) [Example 28] | – | – | – | – | –
24 | 3.19 | CCCCOCCC1CCCCN1C(=O)c1c(C(F)F)nn(C)c1F (stereo not drawn) [Example 32] | 100 | 94 | – | – | –
25 | 2.80 | CCCCOCCC1CCCCN1C(=O)c1cn(C)nc1C(F)F (stereo not drawn) [Example 30] | 95 | 89 | – | – | –
26 | 3.96 | Cn1nc(C(F)F)c(C(=S)N2CCCC2CC2CCCCC2)c1F (stereo not drawn) [Example 51] | – | – | – | – | –
27 | 1.88 | COCCCC1CCCCN1C(=O)c1cn(C)nc1C(F)F (stereo not drawn) [Example 45] | – | – | – | – | –
28 | 3.99 | Cn1nc(C(F)F)c(C(=O)N2CCCC2CC2CC3CCC2C3)c1Cl (stereo not drawn) [Example 50] | 100 | 88 | – | – | –
29 | 4.67 | Cn1nc(C(F)F)c(C(=O)N2CCCCC2CCOCCC2CCCCC2)c1F (stereo not drawn) [Example 44] | 100 | 89 | – | – | –
30 | 1.96 | COCCCOCCC1CCCCN1C(=O)c1cn(C)nc1C(F)F (stereo not drawn) [Example 41] | 70 | – | – | – | –
31 | 4.19 | Cn1nc(C(F)F)c(C(=O)N2CCCCC2CC2CCCCC2)c1F (stereo not drawn) [Example 26] | 100 | 100 | 100 | – | –
32 | 2.18 | COCCCC1CCCCN1C(=O)c1c(C(F)F)nn(C)c1F (stereo not drawn) [Example 47] | 100 | 89 | – | – | –
33 | 3.51 | Cn1nc(C(F)F)c(C(=O)N2CCCCC2CCOCC2CCC2)c1Cl (stereo not drawn) [Example 36] | 78 | 88 | – | – | –
34 | 2.25 | COCCCOCCC1CCCCN1C(=O)c1c(C(F)F)nn(C)c1F (stereo not drawn) [Example 40] | 95 | 94 | – | – | –
35 | 2.39 | COCCCOCCC1CCCCN1C(=O)c1c(C(F)F)nn(C)c1Cl (stereo not drawn) [Example 39] | – | – | – | – | –
36 | 2.66 | Cn1nc(C(F)F)c(C(=O)N2CCCCC2CCOCC2CC2)c1F (stereo not drawn) [Example 35] | 94 | 94 | – | – | –
37 | 4.51 | Cn1nc(C(F)F)c(C(=S)N2CCCC2C23CC4CC(CC(C4)C2)C3)c1F (stereo not drawn) [Example 52] | – | – | – | – | –
38 | 3.15 | Cn1cc(C(=O)N2CCCCC2C2CCCCC2)c(C(F)F)n1 (stereo not drawn) [Example 25] | 100 | 90 | 100 | 90 | –
39 | 4.23 | Cn1cc(C(=O)N2CCCCC2CCOCCC2CCCCC2)c(C(F)F)n1 (stereo not drawn) [Example 42] | 95 | 78 | – | – | –
40 | 2.92 | Cn1cc(C(=O)N2CCCCC2CCOCC2CCC2)c(C(F)F)n1 (stereo not drawn) [Example 38] | 89 | – | – | – | –
41 | 2.82 | Cn1nc(C(F)F)c(C(=O)N2CCCCC2CCOCC2CC2)c1Cl (stereo not drawn) [Example 34] | 94 | – | – | – | –
42 | 2.32 | Cn1cc(C(=O)N2CCCCC2CCOCC2CC2)c(C(F)F)n1 (stereo not drawn) [Example 33] | 94 | – | – | – | –
43 | 2.33 | COCCCC1CCCCN1C(=O)c1c(C(F)F)nn(C)c1Cl (stereo not drawn) [Example 46] | – | – | – | – | –
44 | 3.33 | Cn1nc(C(F)F)c(C(=O)N2CCCCC2CCOCC2CCC2)c1F (stereo not drawn) [Example 37] | 94 | 94 | – | – | –
